# Results taken from PubChem BioAssay (NCI).
#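 The concentration for 50% growth inhibition is given as GI50. TGI is the concentration that stops growth completely.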
# Legend:
# Experiment in all cases: NCI tumour cell line growth inhibition, 384-well format
# [1] = tested on: A498 renal
# [2] = tested on: K-562 leukemia
# [3] = tested on: MOLT-4 leukemia
# [4] = tested on: SK-MEL-2 melanoma
# [5] = tested on: SK-MEL-28 melanoma
# [6] = tested on: HOP-62 NSCLC
# [7] = tested on: HS 578T breast
# [8] = tested on: UO-31 renal
# [9] = tested on: HCT-116 colon
# [10] = tested on: COLO 205 colon
# [11] = tested on: U251 glioblastoma
# [12] = tested on: OVCAR-5 ovarian
# [13] = tested on: SNB-19 CNS
# [14] = tested on: HCT-15 colon
# [15] = tested on: KM12 colon
# [16] = tested on: SR leukemia
# [17] = tested on: A549 NSCLC
# [18] = tested on: HT29 colon
# [19] = tested on: IGROV1 ovarian
# [20] = tested on: BT-549 breast
# [21] = tested on: UACC-62 melanoma
# [22] = tested on: SF-539 CNS
# [23] = tested on: MDA-MB-231 breast
# [24] = tested on: CCRF-CEM leukemia
# [25] = tested on: HOP-92 NSCLC
# [26] = tested on: NCI-H322M lung
# [27] = tested on: SF-295 CNS
# [28] = tested on: MCF7 breast
# [29] = tested on: SW-620 colon
# [30] = tested on: MDA-MB-468 breast
# [31] = tested on: SK-MEL-5 melanoma
# [32] = tested on: MDA-MB-435 melanoma
# [33] = tested on: SN12C renal
# [34] = tested on: RPMI-8226 leukemia
# [35] = tested on: CAKI-1 renal
# [36] = tested on: NCI-H522 lung
# [37] = tested on: SNB-75 CNS
# [38] = tested on: NCI-H226 lung
# [39] = tested on: SK-OV-3 ovarian
# [40] = tested on: ACHN renal
# [41] = tested on: OVCAR-8 ovarian
# [42] = tested on: 786-0 renal
# [43] = tested on: NCI/ADR-RES ovarian
# [44] = tested on: PC-3 prostate
# [45] = tested on: HL-60(TB) leukemia
# [46] = tested on: RXF 393 renal
# [47] = tested on: NCI-H460 NSCLC
smiles,measurement,setting,value
C[C@@H](Oc1cc(-c2cnn(C3CCNCC3)c2)cnc1N)c1c(Cl)cc(F)cc1Cl,GI50,[1],1650 nM
same,TGI,[1],3840 nM
same,GI50,[2],131 nM
same,TGI,[2],262 nM
same,GI50,[3],196 nM
same,TGI,[3],377 nM
same,GI50,[4],1450 nM
same,TGI,[4],2760 nM
same,GI50,[5],1600 nM
same,TGI,[5],3090 nM
same,GI50,[6],2160 nM
same,TGI,[6],6370 nM
same,GI50,[7],1480 nM
same,TGI,[7],3710 nM
same,GI50,[8],2640 nM
same,TGI,[8],6430 nM
same,GI50,[9],728 nM
same,TGI,[9],1970 nM
same,GI50,[10],971 nM
same,TGI,[10],2390 nM
same,GI50,[11],2780 nM
same,TGI,[11],7160 nM
same,GI50,[12],2220 nM
same,TGI,[12],6920 nM
same,GI50,[13],3870 nM
same,TGI,[13],8610 nM
same,GI50,[14],1720 nM
same,TGI,[14],5470 nM
same,GI50,[15],43.1 nM
same,TGI,[15],2270 nM
same,GI50,[16],42.3 nM
same,TGI,[16],73.8 nM
same,GI50,[17],860 nM
same,TGI,[17],4420 nM
same,GI50,[18],1020 nM
same,TGI,[18],2300 nM
same,GI50,[19],2770 nM
same,TGI,[19],7260 nM
same,GI50,[20],1850 nM
same,TGI,[20],3450 nM
same,GI50,[21],1390 nM
same,TGI,[21],3090 nM
same,GI50,[22],1700 nM
same,TGI,[22],3650 nM
same,GI50,[23],1550 nM
same,TGI,[23],3490 nM
same,GI50,[24],277 nM
same,TGI,[24],660 nM
same,GI50,[25],1030 nM
same,TGI,[25],2360 nM
same,GI50,[26],2880 nM
same,TGI,[26],8370 nM
same,GI50,[27],1210 nM
same,TGI,[27],4300 nM
same,GI50,[28],614 nM
same,TGI,[28],1860 nM
same,GI50,[29],1250 nM
same,TGI,[29],4650 nM
same,GI50,[30],725 nM
same,TGI,[30],1560 nM
same,GI50,[31],1390 nM
same,TGI,[31],2700 nM
same,GI50,[32],2570 nM
same,TGI,[32],6790 nM
same,GI50,[33],2110 nM
same,TGI,[33],8700 nM
same,GI50,[34],1160 nM
same,TGI,[34],2970 nM
same,GI50,[35],1350 nM
same,TGI,[35],2980 nM
same,GI50,[36],3210 nM
same,TGI,[36],7290 nM
same,GI50,[37],1900 nM
same,TGI,[37],3850 nM
same,GI50,[38],1250 nM
same,TGI,[38],3250 nM
same,GI50,[39],5400 nM
same,TGI,[39],9790 nM
same,GI50,[40],1890 nM
same,TGI,[40],5770 nM
same,GI50,[41],2030 nM
same,TGI,[41],5410 nM
same,GI50,[42],1480 nM
same,TGI,[42],2960 nM
same,GI50,[43],6360 nM
same,TGI,[43],16000 nM
same,GI50,[44],1940 nM
same,TGI,[44],5570 nM
same,GI50,[45],256 nM
same,TGI,[45],485 nM
same,GI50,[46],1940 nM
same,TGI,[46],3610 nM
same,GI50,[47],529 nM
same,TGI,[47],2650 nM
